From patent publication US20070254863A1 (priority 2006, published 2007)
Read-outs that look alike come from different tables or passages of the source.

Tests used:
hamster SUR1 = target: T1, hamster SUR1 (Cricetus cricetus, UniProt Q09427); assay: In vitro binding affinity to rodent KATP channels: SUR1 ([3H]glibenclamide displacement, COS cell membranes); details: hamster SUR1 in COS cell membranes; read-out: Affinity to SUR 1 (converted)
T1 construct: expressed in transfected cells; host or cells: COS-1 cells, transient (pcDNA vector)
T1 sequence (Q09427 whole entry): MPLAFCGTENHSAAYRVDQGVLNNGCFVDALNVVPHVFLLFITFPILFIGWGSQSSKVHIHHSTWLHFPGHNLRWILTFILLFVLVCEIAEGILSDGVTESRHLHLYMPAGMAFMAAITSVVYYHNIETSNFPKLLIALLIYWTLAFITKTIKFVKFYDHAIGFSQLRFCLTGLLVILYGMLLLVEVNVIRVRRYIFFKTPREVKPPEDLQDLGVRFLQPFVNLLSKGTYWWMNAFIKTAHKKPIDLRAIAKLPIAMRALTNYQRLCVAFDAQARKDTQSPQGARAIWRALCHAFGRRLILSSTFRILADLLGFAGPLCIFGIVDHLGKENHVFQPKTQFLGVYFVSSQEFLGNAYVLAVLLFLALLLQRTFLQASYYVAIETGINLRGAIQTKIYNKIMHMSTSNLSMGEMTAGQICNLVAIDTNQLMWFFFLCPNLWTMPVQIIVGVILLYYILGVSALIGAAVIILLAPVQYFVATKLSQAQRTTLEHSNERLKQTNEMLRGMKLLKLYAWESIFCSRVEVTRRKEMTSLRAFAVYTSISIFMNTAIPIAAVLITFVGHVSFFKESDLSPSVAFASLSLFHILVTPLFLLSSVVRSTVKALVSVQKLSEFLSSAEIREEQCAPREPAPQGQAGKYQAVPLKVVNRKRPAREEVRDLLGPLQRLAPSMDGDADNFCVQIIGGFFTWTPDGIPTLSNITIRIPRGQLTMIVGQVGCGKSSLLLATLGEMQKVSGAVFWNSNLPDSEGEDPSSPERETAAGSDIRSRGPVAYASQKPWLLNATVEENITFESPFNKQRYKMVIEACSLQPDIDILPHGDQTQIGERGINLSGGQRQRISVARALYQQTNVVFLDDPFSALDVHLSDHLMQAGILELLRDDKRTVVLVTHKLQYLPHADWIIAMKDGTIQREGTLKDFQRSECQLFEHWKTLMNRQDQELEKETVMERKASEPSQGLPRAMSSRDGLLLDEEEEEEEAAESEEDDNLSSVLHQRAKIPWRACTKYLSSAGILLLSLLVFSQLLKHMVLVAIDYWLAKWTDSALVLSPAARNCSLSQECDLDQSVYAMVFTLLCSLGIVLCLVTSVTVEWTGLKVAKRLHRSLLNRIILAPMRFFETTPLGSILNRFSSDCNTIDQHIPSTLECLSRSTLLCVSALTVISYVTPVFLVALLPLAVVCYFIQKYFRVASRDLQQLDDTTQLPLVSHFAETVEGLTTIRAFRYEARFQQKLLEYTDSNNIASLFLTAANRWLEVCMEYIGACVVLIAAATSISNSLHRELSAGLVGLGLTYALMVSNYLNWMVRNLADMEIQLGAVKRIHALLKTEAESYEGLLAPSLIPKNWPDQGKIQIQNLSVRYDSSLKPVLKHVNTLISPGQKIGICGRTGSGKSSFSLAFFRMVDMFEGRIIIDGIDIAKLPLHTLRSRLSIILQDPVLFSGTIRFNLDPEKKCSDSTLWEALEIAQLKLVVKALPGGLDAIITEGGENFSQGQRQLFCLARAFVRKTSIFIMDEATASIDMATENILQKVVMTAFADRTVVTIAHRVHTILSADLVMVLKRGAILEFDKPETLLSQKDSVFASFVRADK

[1] = system: rat perifused pancreatic islets; assay: KATP opening effects through insulin secretion in rat perifused pancreatic islets; type: cell-based; details: 11 mM glucose; for % Inhibition 0-30 (insulin secretion): 0-30 minutes; for % Inhibition 30-60 (insulin secretion): 30-60 minutes
Method: Determination of the KATP Opening Effects of Compounds Through Insulin Secretion in Rat Perifused Pancreatic Islets
The animals were maintained on a 12 h light-dark cycle (lights on 06.00-18.00 h) with free access to standard rodent diet (B&K Universal Ltd standard rat and mouse diet (BK 001P), Beekay Feeds, B&K Universal Ltd, Hull, East Riding of Yorkshire) and tap water. The rats were conditioned to this environment for at least one week before experimentation.
Experimental procedures: After the rats were sacrificed, the branch of the bile duct leading to the liver and the duodenal end of the duct in the pancreas were clamped and the pancreas distended by injection of ice-cold 0.9 mg/ml collagenase solution into the bile duct. […] Following incubation, 10 ml of cold buffer was added and the suspension shaken vigorously by hand for 1 min. The islets were allowed to settle for 5 min on ice and washed three times using ice-cold buffer. Well-formed and good-sized islets from three rats were hand-picked (under a low power microscope) and pooled and a final selection of islet transferred to the perifusion apparatus.
Two experiments were performed in parallel in two identical, independent sets of perifusion apparatus each consisting of sufficient number of chambers. Each chamber was loaded with 20 hand-picked islets. Islets were perifused for an initial 30 min period in media containing 4 mM glucose. Perifusate was then collected at 2 min intervals for the remainder of the experiment. […] Perifusate fractions were stored at −75° C. until required for insulin assay. Insulin content of fractions were assayed using a 96-well ELISA assay (Mercodia). Initial insulin assays were performed in triplicate on three pooled fractions from each chamber.
Data were initially expressed as a simple mean of the three experiments for insulin secretion (pg/islet/min) and multiple t-tests (against the corresponding vehicle time period) used to determine potential significant effects of treatments. Alternatively, data were also calculated as a % vehicle effect for each experimental day. This latter approach was deemed to be the more powerful analysis as it corrected for the day to day variation in insulin release from the islets.

[2] = target: human cannabinoid CB2 receptor (Homo sapiens, UniProt P34972); assay: biochemical; type: binding
Chain of human cannabinoid CB2 receptor (P34972 whole entry): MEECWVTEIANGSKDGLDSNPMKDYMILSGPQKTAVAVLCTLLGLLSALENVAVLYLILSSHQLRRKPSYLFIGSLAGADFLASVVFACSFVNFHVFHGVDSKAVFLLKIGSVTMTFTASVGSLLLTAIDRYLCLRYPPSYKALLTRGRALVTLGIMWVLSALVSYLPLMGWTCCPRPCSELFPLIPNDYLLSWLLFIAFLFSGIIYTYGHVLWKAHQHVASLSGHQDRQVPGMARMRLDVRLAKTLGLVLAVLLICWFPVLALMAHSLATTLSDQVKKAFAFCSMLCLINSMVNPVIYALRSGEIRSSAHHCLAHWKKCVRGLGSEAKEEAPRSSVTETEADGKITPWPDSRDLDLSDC
Method: 3. In Vitro Binding Affinity of the Test Compounds to CB2 Receptors
After incubation of a freshly prepared cell membrane preparation with the [^3H]-ligand, with or without the addition of the compounds described herein, separation of bound and free ligand is performed by filtration over glass-fiber filters. Radioactivity on the filter is measured by liquid scintillation counting.

rat SUR2A = rat SUR2A (Rattus norvegicus, UniProt Q63563); assay: In vitro binding affinity to rodent KATP channels: SUR2A ([3H]P1075 / [3H]glibenclamide displacement, COS cell membranes)
Chain of rat SUR2A (Q63563 whole entry): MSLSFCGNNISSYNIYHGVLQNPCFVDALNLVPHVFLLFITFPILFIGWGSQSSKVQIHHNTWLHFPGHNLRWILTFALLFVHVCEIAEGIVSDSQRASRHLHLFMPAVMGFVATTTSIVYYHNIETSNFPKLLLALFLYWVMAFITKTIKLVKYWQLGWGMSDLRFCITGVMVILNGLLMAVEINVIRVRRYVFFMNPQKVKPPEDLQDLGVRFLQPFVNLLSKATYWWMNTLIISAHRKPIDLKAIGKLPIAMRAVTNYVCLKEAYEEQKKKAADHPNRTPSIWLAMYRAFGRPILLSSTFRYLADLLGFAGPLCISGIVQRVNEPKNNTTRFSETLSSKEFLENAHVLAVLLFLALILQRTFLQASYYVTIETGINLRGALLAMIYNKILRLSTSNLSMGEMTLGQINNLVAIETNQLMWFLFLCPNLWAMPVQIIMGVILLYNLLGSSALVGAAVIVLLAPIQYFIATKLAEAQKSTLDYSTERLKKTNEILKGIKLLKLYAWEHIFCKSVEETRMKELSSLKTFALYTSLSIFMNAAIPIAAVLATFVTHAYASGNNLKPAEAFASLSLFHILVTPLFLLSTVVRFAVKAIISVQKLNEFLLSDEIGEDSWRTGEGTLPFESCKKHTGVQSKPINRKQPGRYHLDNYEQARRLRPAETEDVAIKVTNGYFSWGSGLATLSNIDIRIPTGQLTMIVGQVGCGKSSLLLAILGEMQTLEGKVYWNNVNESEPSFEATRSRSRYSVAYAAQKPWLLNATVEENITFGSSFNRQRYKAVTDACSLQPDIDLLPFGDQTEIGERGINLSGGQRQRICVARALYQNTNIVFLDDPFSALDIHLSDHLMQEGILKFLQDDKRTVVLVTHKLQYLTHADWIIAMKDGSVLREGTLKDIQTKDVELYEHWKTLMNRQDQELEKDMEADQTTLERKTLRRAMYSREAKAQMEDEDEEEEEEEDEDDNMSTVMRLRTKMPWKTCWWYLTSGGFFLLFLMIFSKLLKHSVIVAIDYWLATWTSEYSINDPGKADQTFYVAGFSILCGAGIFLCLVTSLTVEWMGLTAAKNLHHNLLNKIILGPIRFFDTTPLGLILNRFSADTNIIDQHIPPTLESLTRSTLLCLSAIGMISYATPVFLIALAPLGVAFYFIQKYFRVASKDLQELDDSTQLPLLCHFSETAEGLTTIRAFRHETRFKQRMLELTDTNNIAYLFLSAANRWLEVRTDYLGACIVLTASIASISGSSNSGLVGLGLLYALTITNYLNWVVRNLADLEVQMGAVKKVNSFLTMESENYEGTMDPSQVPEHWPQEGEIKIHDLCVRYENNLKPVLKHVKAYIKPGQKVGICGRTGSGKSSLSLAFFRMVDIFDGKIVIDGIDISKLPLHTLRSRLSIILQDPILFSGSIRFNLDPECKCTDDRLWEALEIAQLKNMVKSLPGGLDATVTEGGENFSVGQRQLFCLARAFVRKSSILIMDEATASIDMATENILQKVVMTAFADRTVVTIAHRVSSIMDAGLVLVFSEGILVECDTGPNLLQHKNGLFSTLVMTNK
Method in brief: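 COS-cell membranes transiently expressing rat SUR2A incubated 1 h at room temperature in 50 mM Tris pH 7.4, ~0.7 mM free Mg2+, with 3 nM [3H]P1075 (wild type) or [3H]glibenclamide (SUR2AY1205S); filtration read-out. Ki from IC50, reported as pKi; 9-15 concentrations per curve.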

[3] = cloned human CB2 receptor expressed in CHO cells, read-out: Affinity to CB2 (converted)

CN/C(=N\S(=O)(=O)c1ccc(Cl)cc1)N1C[C@H](c2ccccc2)C(c2ccc(Cl)cc2)=N1
Ki (hamster SUR1): 0.501 µM | % Inhibition 0-30 (insulin secretion) [1]: 42% | % Inhibition 30-60 (insulin secretion) [1]: 22%

CON/C(=N\S(=O)(=O)c1ccc(Cl)cc1)N1C[C@H](c2cccc(F)c2)C(c2ccc(Cl)cc2)=N1 (stereo in doubt) [4-Chloro-N-{[3-(4-chloro-phenyl)-4-(3-fluoro-phenyl)-4,5-dihydro-pyrazol-1-yl]-methoxyamino-methylene}-benzenesulfonamide]
% Inhibition 0-30 (insulin secretion) [1]: 90% | % Inhibition 30-60 (insulin secretion) [1]: 95%

CN/C(=N\S(=O)(=O)c1ccc(Cl)cc1)N1C[C@@H](c2ccccc2)C(c2ccc(Cl)cc2)=N1 (stereo in doubt) [4-Chloro-N-{[3-(4-chloro-phenyl)-4-phenyl-4,5-dihydro-pyrazol-1-yl]-methylamino-methylene}-benzenesulfonamide]
% Inhibition 0-30 (insulin secretion) [1]: 59% | % Inhibition 30-60 (insulin secretion) [1]: 25%

CCCCCCC(C)(C)c1ccc([C@@H]2C[C@H](O)CC[C@H]2CCCO)c(O)c1 (stereo in doubt) [CP55940, 5-(1,1-Dimethyl-heptyl)-2-[5-hydroxy-2-(3-hydroxy-propyl)-cyclohexyl]-phenol, reference compound]
Ki (hamster SUR1): 5.01 µM | % Inhibition 0-30 (insulin secretion) [1]: 91% | % Inhibition 30-60 (insulin secretion) [1]: 56%

Cc1c(C(=O)NN2CCCCC2)nc(-c2ccc(Cl)cc2Cl)n1-c1ccccn1 [2-(2,4-Dichloro-phenyl)-5-methyl-1-pyridin-2-yl-1H-imidazole-4-carboxylic acid piperidin-1-ylamide]
Ki [2, 3]: 631 nM | Ki (hamster SUR1): 100 µM | pKi (rat SUR2A): 4.1

NC(Cc1ccc(Cl)c(Cl)c1)C(=O)N1CC(c2ccccc2)C(c2ccc(Cl)cc2)=N1 (stereo not drawn) [2-Amino-1-[3-(4-chloro-phenyl)-4-phenyl-4,5-dihydro-pyrazol-1-yl]-3-(3,4-dichloro-phenyl)-propan-1-one]
Ki [2, 3]: 631 nM | Ki (hamster SUR1): 3.98 µM | pKi (rat SUR2A): 4.8

CC(C)(CO)CN/C(=N\S(=O)(=O)c1ccc(Cl)cc1)N1CC(c2ccccc2)C(c2ccc(Cl)cc2)=N1 (stereo not drawn) [4-Chloro-N-[[3-(4-chloro-phenyl)-4-phenyl-4,5-dihydro-pyrazol-1-yl]-(3-hydroxy-2,2-dimethyl-propylamino)-methylene]-benzenesulfonamide]
Ki [2, 3]: 794 nM | Ki (hamster SUR1): 31.6 µM | pKi (rat SUR2A): 5.4

CN1CCC(CNC(=NS(=O)(=O)c2ccc(Cl)cc2)N2CC(c3ccccc3)C(c3ccc(Cl)cc3)=N2)C1 (stereo not drawn) [4-Chloro-N-{[3-(4-chloro-phenyl)-4-phenyl-4,5-dihydro-pyrazol-1-yl]-[(1-methyl-pyrrolidin-3-ylmethyl)-amino]-methylene]-benzenesulfonamide]
Ki [2, 3]: 1000 nM | Ki (hamster SUR1): 1 µM | pKi (rat SUR2A): 4.8

O=S(=O)(N=C(NCc1cccnc1)N1CC(c2ccccc2)C(c2ccc(Cl)cc2)=N1)c1ccc(Cl)cc1 (stereo not drawn) [4-Chloro-N-{[3-(4-chloro-phenyl)-4-phenyl-4,5-dihydro-pyrazol-1-yl]-[(pyridin-3-ylmethyl)-amino]-methylene}-benzenesulfonamide]
Ki [2, 3]: 501 nM | Ki (hamster SUR1): 1.26 µM | pKi (rat SUR2A): 5.7

Cc1c(C=C(c2cc(F)cc(F)c2)S(C)(=O)=O)nn(-c2ccc(Cl)cc2Cl)c1-c1ccc(Br)cc1 [5-(4-Bromo-phenyl)-1-(2,4-dichloro-phenyl)-3-(2-(3,5-difluoro-phenyl)-2-methanesulfonyl-vinyl]-4-methyl-1H-pyrazole]
Ki [2, 3]: 1260 nM | Ki (hamster SUR1): 100 µM | pKi (rat SUR2A): 4.0

O=C(NN1CCCCC1)C1=NN(c2ccc(Cl)cc2Cl)C(c2ccc(Cl)cc2)C1 (stereo not drawn) [5-(4-Chloro-phenyl)-1-(2,4-dichloro-phenyl)-4,5-dihydro-1H-pyrazole-3-carboxylic acid piperidine-1-ylamide]
Ki [2, 3]: 794 nM | Ki (hamster SUR1): 3.98 µM | pKi (rat SUR2A): 5.6

Cn1c(C(=O)NN2CCCCC2)nc(-c2cc(Cl)ccc2Cl)c1-c1ccc(Cl)cc1 [5-(4-Chloro-phenyl)-4-(2,5-dichloro-phenyl)-1-methyl 1H-imidazole-2-carboxylic acid piperidin-1-ylamide]
Ki [2, 3]: 398 nM | Ki (hamster SUR1): 25.1 µM | pKi (rat SUR2A): 5.0

C[C@H](NS(C)(=O)=O)c1ccc(S(=O)(=O)c2ccc(Cl)cc2S(=O)(=O)c2ccccc2F)cc1 [N-(1-{4-[4-Chloro-2-(2-fluoro-benzenesulfonyl)-benzenesulfonyl]-phenyl}-ethyl)-methanesulfonamide, reference compound]
Ki [2]: 0.501 nM | Ki (hamster SUR1): 1.26 µM | pKi (rat SUR2A): 4.7

CN/C(=N\S(=O)(=O)c1ccc(C(F)(F)F)cc1)N1CC(c2cccnc2)C(c2ccc(Cl)cc2)=N1 (stereo not drawn) [N-([3-(4-Chloro-phenyl)-4-pyridin-3-yl-4,5-dihydro-pyrazol-1-yl]-methylamino-methylene}-4-trifluoromethyl-benzenesulfonamide]
Ki (hamster SUR1): 0.501 µM | pKi (rat SUR2A): 4.9 | % Inhibition 0-30 (insulin secretion) [1]: 58% | % Inhibition 30-60 (insulin secretion) [1]: 31%

NC(=NS(=O)(=O)c1ccc(Cl)cc1)N1CC(c2ccccc2)C(c2ccc(Cl)cc2)=N1 (stereo not drawn) [N-{Amino-[3-(4-chloro-phenyl)-4-phenyl-4,5-dihydro-pyrazol-1-yl]-methylene}-4-chloro-benzenesulfonamide]
Ki [2]: 398 nM | Ki (hamster SUR1): 1 µM | pKi (rat SUR2A): 5.1

CNC(=NS(=O)(=O)N1CCCCC1)N1CC(c2cccc(F)c2)C(c2ccc(Cl)cc2)=N1 (stereo not drawn) [Piperidine-1-sulfonic acid [3-(4-chloro-phenyl)-4-(3-fluoro-phenyl)-4,5-dihydro-pyrazol-1-yl]-methylamino-methyleneamide]
Ki [2, 3]: 794 nM | Ki (hamster SUR1): 31.6 µM | pKi (rat SUR2A): 6.3

Cc1c(C(=O)c2cccc3ccccc23)c2cccc3c2n1[C@H](CN1CCOCC1)CO3 [R(+)-WIN55212-2, (2-Methyl-3-morpholin-4-ylmethyl-3,4-dihydro-5-oxa-2a-azacenaphthylen-1-yl)-naphthalen-1-yl-methanone, reference compound]
Ki (hamster SUR1): 39.8 µM | % Inhibition 0-30 (insulin secretion) [1]: 80% | % Inhibition 30-60 (insulin secretion) [1]: 35%

Cc1c(C(=O)NN2CCCCC2)nn(-c2ccc(Cl)cc2Cl)c1-c1ccc(Cl)cc1 [Rimonabant, 5-(4-Chloro-phenyl)-1-(2,4-dichloro-phenyl)-4-methyl-1H-pyrazole-3-carboxylic acid piperidin-1-ylamide, reference compound]
Ki (hamster SUR1): 5.01 µM | % Inhibition 0-30 (insulin secretion) [1]: 22% | % Inhibition 30-60 (insulin secretion) [1]: 18%

Cc1c(C(=O)c2cccc3ccccc23)c2cccc3c2n1[C@H](CN1CCOCC1)CO3 [drawing 112, (2-Methyl-3-morpholin-4-ylmethyl-3,4-dihydro-5-oxa-2a-azacenaphthylen-1-yl)-naphthalen-1-yl-methanone, reference compound]
% Inhibition 0-30 (insulin secretion) [1]: 69% | % Inhibition 30-60 (insulin secretion) [1]: 40%

CN/C(=N\S(=O)(=O)N1CCOCC1)N1CC(c2ccccc2)C(c2ccc(Cl)cc2)=N1 (stereo not drawn) [drawing 118, Morpholine-4-sulfonic acid [3-(4-chloro-phenyl)-4-phenyl-4,5-dihydro-pyrazol-1-yl]-methylamino-methyleneamide]
% Inhibition 0-30 (insulin secretion) [1]: 83% | % Inhibition 30-60 (insulin secretion) [1]: 91%
